Laboratory results from patent US12331061B2, “Compounds having BET, estrogen receptor, and androgen receptor degradation activity and uses thereof” (ACCUTAR BIOTECHNOLOGY INC., priority 2019, dated 2025).

Key:
Experiment in all cases: Degradation of BET proteins in MCF7 cells, Western blot with densitometry
Format in all cases: cell-based
[1] = biological target: BRD4 (Homo sapiens, UniProt O60885); design: endogenous in cells; host or cells: MCF7; conditions: 24 hour time course experiment; shown only in FIG. 1c
Method: (§1) MCF7 cells were plated in 24-well plates at 1.5×10^5 cells/well in DMEM growth medium containing 10% FBS and 1% Penicillin Streptomycin, and incubated overnight at 37° C. The following day, test compound was administered to the cells using 1000× compound stock solution prepared in DMSO at various concentrations. […] Cells were then washed with PBS and protein was collected in Laemmli sample buffer (1×; VWR International). Protein was isolated from cell lysate (approximately 25 μg) by SDS-PAGE and transferred to nitrocellulose membranes. Non-specific binding was blocked by incubating with blocking buffer (5% milk in Tris-buffered saline with 0.1% Tween 20 (“TBS-T”)) at room temperature for 60 minutes. The membrane was then incubated with primary antibodies (rabbit anti-BRD2 (1:1000, Cell Signaling), mouse anti-GAPDH (1:5,000, Santa Cruz), mouse anti-BRD3 (1:500, Abcam) and rabbit anti-BRD4 (1:500, Abcam)) overnight at 4° C., followed by washing (3 times) with TBS-T, and incubation with horseradish peroxidase-conjugated […] IgG (1:5,000, Jackson Immunoresearch) or goat anti-mouse IgG (1:5,000, Jackson Immunoresearch) for 60 minutes. After washing with TBS-T, blots were developed using an enhanced chemiluminescence kit (ThermoFisher Scientific) and the bands were imaged and quantified by densitometry (Bio-Rad).

[2] = biological target: T1, BRD3 (Homo sapiens, UniProt Q15059); conditions: for degradative activity towards BRD3 over a 24 hour time course: 24 hour time course experiment, shown only in FIG. 1c; for degradative activity towards BRD3: MCF7 cell line, 6 hours after administration, shown only in FIG. 1a, 1b, 2
T1 construct: endogenous in cells; host or cells: MCF7
T1 sequence (Q15059 whole entry): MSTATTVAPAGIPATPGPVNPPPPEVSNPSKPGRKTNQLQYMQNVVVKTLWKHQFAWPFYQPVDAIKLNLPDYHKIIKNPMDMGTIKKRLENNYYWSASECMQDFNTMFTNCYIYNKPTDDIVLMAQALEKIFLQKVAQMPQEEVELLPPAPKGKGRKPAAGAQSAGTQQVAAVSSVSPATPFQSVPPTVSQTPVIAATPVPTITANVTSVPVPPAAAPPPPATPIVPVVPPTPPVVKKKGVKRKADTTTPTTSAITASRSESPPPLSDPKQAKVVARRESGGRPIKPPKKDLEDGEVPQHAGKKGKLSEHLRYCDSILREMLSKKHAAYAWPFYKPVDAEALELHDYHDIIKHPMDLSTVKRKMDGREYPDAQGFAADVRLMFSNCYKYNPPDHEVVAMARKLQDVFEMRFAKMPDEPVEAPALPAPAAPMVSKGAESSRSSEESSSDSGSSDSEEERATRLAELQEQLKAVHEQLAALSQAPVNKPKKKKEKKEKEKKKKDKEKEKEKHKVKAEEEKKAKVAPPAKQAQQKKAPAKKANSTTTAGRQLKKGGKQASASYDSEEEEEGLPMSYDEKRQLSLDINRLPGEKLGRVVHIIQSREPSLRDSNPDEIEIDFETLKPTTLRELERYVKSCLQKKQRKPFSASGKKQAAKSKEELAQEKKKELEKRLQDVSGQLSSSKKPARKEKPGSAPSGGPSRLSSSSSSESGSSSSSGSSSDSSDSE
Method: as §1

[3] = biological target: T2, BRD2 (Homo sapiens, UniProt P25440); conditions: for degradative activity towards BRD2 over a 24 hour time course: 24 hour time course experiment, shown only in FIG. 1c; for degradative activity towards BRD2: MCF7 cell line, 6 hours after administration, shown only in FIG. 1a, 1b, 2
T2 construct: MCF7 cells were plated in 24-well plates; endogenous in cells; host or cells: MCF7
T2 sequence (P25440 whole entry): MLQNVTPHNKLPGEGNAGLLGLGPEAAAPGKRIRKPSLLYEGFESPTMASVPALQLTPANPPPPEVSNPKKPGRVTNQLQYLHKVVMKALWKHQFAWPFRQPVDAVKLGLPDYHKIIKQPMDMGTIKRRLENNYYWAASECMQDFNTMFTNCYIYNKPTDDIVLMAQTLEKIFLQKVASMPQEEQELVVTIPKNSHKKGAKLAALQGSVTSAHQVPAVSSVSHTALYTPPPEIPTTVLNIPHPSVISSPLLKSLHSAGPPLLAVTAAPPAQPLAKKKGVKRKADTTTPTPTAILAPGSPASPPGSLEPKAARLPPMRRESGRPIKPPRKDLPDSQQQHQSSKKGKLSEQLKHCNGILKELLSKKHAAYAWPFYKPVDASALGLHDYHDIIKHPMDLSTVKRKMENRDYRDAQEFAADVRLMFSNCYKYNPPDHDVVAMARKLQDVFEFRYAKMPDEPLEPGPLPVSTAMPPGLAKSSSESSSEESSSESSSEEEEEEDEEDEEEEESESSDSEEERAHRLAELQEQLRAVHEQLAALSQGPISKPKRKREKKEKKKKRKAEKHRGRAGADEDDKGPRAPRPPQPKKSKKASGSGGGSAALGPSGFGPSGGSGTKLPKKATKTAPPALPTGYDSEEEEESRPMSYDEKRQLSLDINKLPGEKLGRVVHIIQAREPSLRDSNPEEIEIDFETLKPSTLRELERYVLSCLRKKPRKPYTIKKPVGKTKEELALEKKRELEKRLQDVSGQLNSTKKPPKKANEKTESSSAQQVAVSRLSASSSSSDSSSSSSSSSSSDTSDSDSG
Method: as §1

Cc1sc2c(c1C)C(c1ccc(Cl)cc1)=N[C@@H](CC(=O)NCCCCCCCCCCC(=O)Nc1ccc(CC(=O)NC3CCC(=O)NC3=O)cc1)c1nnc(C)n1-2 (stereo partly drawn) [Compound 253034, 11-(2-((S)-4-(4-chlorophenyl)-2,3,9-trimethyl-6H-thieno[3,2-f][1,2,4]triazolo[4,3-a][1,4]diazepin-6-yl)acetamido)-N-(4-(2-((2,6-dioxopiperidin-3-yl)amino)-2-oxoethyl)phenyl)undecanamide]
degradative activity: degradative activity towards BRD4 over a 24 hour time course [1] | degradative activity towards BRD3 over a 24 hour time course [2] | degradative activity towards BRD3 [2] | degradative activity towards BRD2 over a 24 hour time course [3] | degradative activity towards BRD2 [3]

Cc1sc2c(c1C)C(c1ccc(Cl)cc1)=N[C@@H](CC(=O)NCCCCCCCCCCC(=O)Nc1cccc(CC(=O)NC3CCC(=O)NC3=O)c1)c1nnc(C)n1-2 (stereo partly drawn) [Compound 253035, 11-(2-((S)-4-(4-chlorophenyl)-2,3,9-trimethyl-6H-thieno[3,2-f][1,2,4]triazolo[4,3-a][1,4]diazepin-6-yl)acetamido)-N-(3-(2-((2,6-dioxopiperidin-3-yl)amino)-2-oxoethyl)phenyl)undecanamide]
degradative activity: degradative activity towards BRD4 over a 24 hour time course [1] | degradative activity towards BRD3 over a 24 hour time course [2] | degradative activity towards BRD3 [2] | degradative activity towards BRD2 over a 24 hour time course [3] | degradative activity towards BRD2 [3]
